Experimental data taken from ChEMBL document CHEMBL4808184, “Discovery and Optimization of DNA Gyrase and Topoisomerase IV Inhibitors with Potent Activity against Fluoroquinolone-Resistant Gram-Positive Bacteria” (J Med Chem, 2021).
In brackets after ≈: the same amount, converted by molar mass.

Assays:
Staphylococcus aureus [1] = assay: microbe, parasite or virus in culture; conditions: ATCC 49951
Staphylococcus aureus [2] = assay: microbe, parasite or virus in culture; conditions: ATCC 49951; remark: listed apart in the source
physchem [3] = assay: physchem
physchem [4] = conditions: octanol/water, pH 7.4
HepG2 = assay: cells; conditions: Homo sapiens, HepG2, 72 h
K562 = assay: cells; conditions: Homo sapiens, K562, 72 h
in vitro [5] = conditions: CD1, mouse, plasma
in vivo [6] = conditions: rat, 5 mg/kg
in vivo [7] = conditions: rat, iv
in vivo [8] = conditions: rat, po, 5 mg/kg
in vivo [9] = conditions: rat, po, 5 mg/kg; remark: listed apart in the source
in vitro [10] = conditions: Sprague-Dawley, rat, plasma
in vivo [11] = conditions: rat, po, 5 mg/kg; remark: listed apart in the source
in vitro [12] = conditions: human, plasma

Row | SMILES | MIC (Staphylococcus aureus [1]) [µg/mL] | MIC (Staphylococcus aureus [2]) [µg/mL] | pKa (physchem [3]) | logD (physchem [4]) | other results
1 | Cc1c(N2CCC(C3(N)CC3)C2)c(F)cc2c(-c3noc(=S)[nH]3)cc(=O)n(C3CC3)c12 (centres undefined) | 4 (≈ 9.06 µM) | 4 (≈ 9.06 µM) | 2 |  | 
2 | CO[C@@H]1CC2CN(c3c(F)cc4cc(C(=O)O)c(=O)n5c4c3OC[C@@H]5C)C[C@@H]2[C@H](N)C1 (single isomer, unassigned) | ≤ 0.03 | 0.25 (≈ 0.579 µM) | 5.2 | -1.5 | 
3 | C[C@H]1COc2c(N3C[C@@H]4CCCN[C@@H]4C3)c(F)cc3cc(C(=O)O)c(=O)n1c23 | 1 (≈ 2.58 µM) | 32 (≈ 82.6 µM) | 5 | -1.46 | 
4 | Cc1c(N2CCC(C3(N)CC3)C2)c(F)cc2c(-c3n[nH]c(=O)o3)cc(=O)n(C3CC3)c12 (centres undefined) | 0.5 (≈ 1.18 µM) | 1 (≈ 2.35 µM) | 6.4 |  | 
5 | C[C@H]1COc2c(N3CCC(=C(Cl)CN)CC3)c(F)cc3cc(C(=O)O)c(=O)n1c23 | 4 (≈ 9.48 µM) | > 32 |  | -0.39 | 
6 | C[C@@H]1COc2c(N3CC[C@@H](C4(N)CC4)C3)c(F)cc3cc(C(=O)O)c(=O)n1c23 | 16 (≈ 41.3 µM) | > 32 |  | -0.92 | 
7 | C[C@H]1CCOc2c(N3CC[C@@H](C4(N)CC4)C3)c(F)cc3cc(C(=O)O)c(=O)n1c23 | 0.25 (≈ 0.623 µM) | 8 (≈ 19.9 µM) |  | 0.01 | 
8 | C[C@H]1COc2c(N3CC[C@@H](C4(N)CC4)C3)cc(F)c3cc(C(=O)O)c(=O)n1c23 | 0.25 (≈ 0.645 µM) | 2 (≈ 5.16 µM) |  | -0.4 | 
9 | Cc1c(N2CC[C@@H](C3(N)CC3)C2)c(F)cc2cc(-c3ncon3)c(=O)n(C3CC3)c12 | 0.25 (≈ 0.611 µM) | 0.5 (≈ 1.22 µM) | 8.4 | 1.46 | 
10 | C[C@H]1COc2c(N3CC[C@@H](C4(N)CC4)C3)c(C#N)cc3cc(C(=O)O)c(=O)n1c23 | 0.25 (≈ 0.634 µM) | 4 (≈ 10.1 µM) |  | -1.77 | 
11 | C[C@H]1COc2c(N3C[C@@H]4CCC[C@H](N)[C@H]4C3)c(F)cc3cc(C(=O)O)c(=O)n1c23 | 0.06 (≈ 0.149 µM) | 0.5 (≈ 1.25 µM) | 5.2 | -1.03 | 
12 | C[C@H]1COc2c(N3CC4C[C@@H](OC(F)F)C[C@@H](N)[C@H]4C3)c(F)cc3cc(C(=O)O)c(=O)n1c23 (single isomer, unassigned) | 0.06 (≈ 0.128 µM) | 1 (≈ 2.14 µM) | 5.2 | -0.4 | 
13 | C[C@H]1COc2c(N3CC4CCC[C@@H](N)[C@H]4C3)c(F)cc3cc(C(=O)O)c(=O)n1c23 (single isomer, unassigned) | ≤ 0.03 | 0.25 (≈ 0.623 µM) | 5.2 | -0.68 | 
14 | C[C@H]1COc2c(N3CC[C@@H](C4(N)CC4)C3)c(F)c(F)c3cc(C(=O)O)c(=O)n1c23 | 0.06 (≈ 0.148 µM) | 1 (≈ 2.47 µM) |  | -0.85 | 
15 | C[C@H]1Cc2c(N3CC[C@@H](C4(N)CC4)C3)c(F)cc3cc(C(=O)O)c(=O)n1c23 | 0.25 (≈ 0.673 µM) | 8 (≈ 21.5 µM) |  | -0.51 | 
16 | C[C@H]1COc2c(N3CC(CN)C4(CCC4)C3)c(F)cc3cc(C(=O)O)c(=O)n1c23 (some centres undefined) | 0.125 (≈ 0.311 µM) | 2 (≈ 4.98 µM) | 5.2 | -0.66 | 
17 | Cc1c(N2CC[C@@H](C3(N)CC3)C2)c(F)cc2cc(-c3nnco3)c(=O)n(C3CC3)c12 | 0.125 (≈ 0.305 µM) | 0.125 (≈ 0.305 µM) | 8.3 |  | 
18 | Cc1c(N2CC[C@@H](C3(N)CC3)C2)c(F)cc2cc(C(N)=O)c(=O)n(C3CC3)c12 | 0.25 (≈ 0.65 µM) | 1 (≈ 2.6 µM) | 8.4 |  | 
19 | C[C@H]1COc2c(N3CC[C@@H](C4(N)CC4)C3)c(Cl)cc3cc(C(=O)O)c(=O)n1c23 | 2 (≈ 4.95 µM) | 32 (≈ 79.2 µM) |  | -1.12 | 
20 | COc1cc2cc(C(=O)O)c(=O)n3c2c(c1N1CC[C@@H](C2(N)CC2)C1)OC[C@@H]3C | 32 (≈ 80.1 µM) | > 32 |  | -1.22 | 
21 | C[C@H]1COc2c(N3CC[C@@H](C4(N)CCC4)C3)c(F)cc3cc(C(=O)O)c(=O)n1c23 | 0.125 (≈ 0.311 µM) | 2 (≈ 4.98 µM) | 4.9 | -1.42 | 
22 | Cc1c(N2CCC(C3(N)CC3)C2)c(F)cc2c(-c3cc(O)no3)cc(=O)n(C3CC3)c12 (centres undefined) | 1 (≈ 2.36 µM) | 2 (≈ 4.71 µM) | 4.7 | 0.29 | 
23 | COc1c(N2C[C@@H]3CCCN[C@@H]3C2)c(F)cc2c(=O)c(C(=O)O)cn(C3CC3)c12 [MOXIFLOXACIN] | 0.06 (≈ 0.149 µM) | 4 (≈ 9.96 µM) | 6.7 |  | EC50 (HepG2): > 100 µM; EC50 (K562): > 100 µM
24 | C[C@H]1COc2c(N3CC4OCC[C@@H](N)[C@H]4C3)c(F)cc3cc(C(=O)O)c(=O)n1c23 (single isomer, unassigned) | 0.125 (≈ 0.31 µM) | 1 (≈ 2.48 µM) | 5.2 | -1.66 | 

Row | SMILES | MIC (Staphylococcus aureus [1]) [µg/mL] | MIC (Staphylococcus aureus [2]) [µg/mL] | pKa (physchem [3]) | logD (physchem [4]) | other results
25 | C[C@H]1CCc2c(N3CC[C@@H](C4(N)CC4)C3)c(F)cc3cc(C(=O)O)c(=O)n1c23 | 0.06 (≈ 0.156 µM) | 1 (≈ 2.59 µM) |  | -0.27 | 
26 | Cc1c(N2CC[C@@H](C3(N)CC3)C2)c(F)cc2cc(Cc3n[nH]c(=O)o3)c(=O)n(C3CC3)c12 | 32 (≈ 72.8 µM) | 32 (≈ 72.8 µM) | 8.8 | 0.87 | 
27 | Cc1c(N2CC[C@@H]([C@H](C)N)C2)c(F)cc2cc(O)c(=O)n(C3CC3)c12 |  | 0.5 (≈ 1.45 µM) | 8.2 |  | EC50 (HepG2): 74 µM; EC50 (K562): 65 µM
28 | Cc1c(N2CC[C@@H](C3(N)CC3)C2)c(F)cc2cc(-c3n[nH]c(=O)o3)c(=O)n(C3CC3)c12 | 0.125 (≈ 0.294 µM) | 0.06 (≈ 0.141 µM) | 7.2 |  | 
29 | Cc1c(N2CCC(C3(N)CC3)C2)c(F)cc2c(Cc3cc(O)no3)cc(=O)n(C3CC3)c12 (centres undefined) | 8 (≈ 18.2 µM) | 8 (≈ 18.2 µM) | 3.9 | -0.9 | 
30 | C[C@H]1COc2c(N3CC[C@@H](C4(N)CC4)C3)ccc3cc(C(=O)O)c(=O)n1c23 |  | 4 (≈ 10.8 µM) |  |  | 
31 | C[C@H]1COc2c(N3CC[C@@H](C4(N)CC4)C3)cc(C#N)c3cc(C(=O)O)c(=O)n1c23 | 0.25 (≈ 0.634 µM) | 2 (≈ 5.07 µM) |  | -0.55 | 
32 | Cc1c(N2CCC(C3(N)CC3)C2)c(F)cc2cc(C(=O)O)c(=O)n(C3CC3)c12 (centres undefined) | 0.06 (≈ 0.156 µM) | 1 (≈ 2.59 µM) | 5.2 | -0.97 | fraction unbound at 4 h, 10 µM (in vitro [5]): 0.48; Vd at 24 h (in vivo [6]): 0.69 L/kg; half-life at 24 h (in vivo [7]): 1.32 h; AUC(0-inf) at 24 h (in vivo [8]): 7.62 µM·h; EC50 (HepG2): > 100 µM; EC50 (K562): > 100 µM; Tmax at 24 h (in vivo [9]): 1 h; fraction unbound at 4 h, 10 µM (in vitro [10]): 0.25; Cmax at 24 h (in vivo [11]): 2000 nM; fraction unbound at 4 h, 10 µM (in vitro [12]): 0.22
33 | C[C@H]1COc2c(N3CC[C@@H](C4(N)CC4)C3)c(F)c(Cl)c3cc(C(=O)O)c(=O)n1c23 | ≤ 0.03 | 0.5 (≈ 1.19 µM) |  | -0.46 | 
34 | Cc1c(N2CCC(C3(N)CC3)C2)c(F)cc2c(Cc3noc(=S)[nH]3)cc(=O)n(C3CC3)c12 (centres undefined) | 8 (≈ 17.6 µM) | 8 (≈ 17.6 µM) | 2.5 | -0.3 | 
35 | Cc1c(N2CCC(C3(N)CC3)C2)c(F)cc2c(Cc3noc(=O)[nH]3)cc(=O)n(C3CC3)c12 (centres undefined) | 4 (≈ 9.1 µM) | 32 (≈ 72.8 µM) | 5.1 | -0.74 | 
36 | C[C@H]1COc2c(N3CC[C@H](O)C3)c(F)cc3cc(C(=O)O)c(=O)n1c23 | 0.5 (≈ 1.44 µM) | > 32 | 5.2 | -0.46 | 
37 | CO[C@@H]1CC[C@@H](N)[C@H]2CN(c3c(F)cc4cc(C(=O)O)c(=O)n5c4c3OC[C@@H]5C)CC12 (single isomer, unassigned) | ≤ 0.03 | 0.25 (≈ 0.579 µM) | 4.9 | -1.28 | 
38 | C[C@H]1COc2c(N3C[C@H]4[C@H](C3)OCC[C@@H]4N)c(F)cc3cc(C(=O)O)c(=O)n1c23 | ≤ 0.03 | 1 (≈ 2.48 µM) | 4.8 | -1.72 | 
39 | C[C@H]1COc2c(N3CC4[C@H](C3)[C@H](N)CCC4(F)F)c(F)cc3cc(C(=O)O)c(=O)n1c23 (single isomer, unassigned) | ≤ 0.03 | 0.125 (≈ 0.286 µM) | 5.1 | -0.78 | 
40 | C[C@H]1COc2c(N3CC[C@H](N)C3)c(F)cc3cc(C(=O)O)c(=O)n1c23 | 2 (≈ 5.76 µM) | > 32 | 4.8 | < -2 | 
41 | Cc1c(N2CC[C@@H](C3(N)CC3)C2)c(F)cc2cc(-c3noc(=O)[nH]3)c(=O)n(C3CC3)c12 | 0.125 (≈ 0.294 µM) | 0.125 (≈ 0.294 µM) | 5.4 | -0.32 | 
42 | Cc1c(N2CC[C@@H](C3(N)CC3)C2)c(F)cc2cc(C#N)c(=O)n(C3CC3)c12 | 0.06 (≈ 0.164 µM) | 0.06 (≈ 0.164 µM) | 8.4 | 1.19 | 
43 | C[C@H]1COc2c(N3CCN(C)CC3)c(F)cc3cc(C(=O)O)c(=O)n1c23 | 16 (≈ 44.3 µM) | > 32 | 4.5 | -1.99 | 
44 | C[C@H]1COc2c(N3CC[C@@H](C4(N)CC4)C3)c(F)c(C#N)c3cc(C(=O)O)c(=O)n1c23 | 0.125 (≈ 0.303 µM) | 1 (≈ 2.42 µM) |  | -1.86 | 
45 | C[C@H]1COc2c(N3CC[C@@H](C4(N)CC4)C3)c(F)c(N)c3cc(C(=O)O)c(=O)n1c23 | 0.5 (≈ 1.24 µM) | 8 (≈ 19.9 µM) |  | -0.97 | 
46 | Cc1c(N2CC3CC3(N)C2)c(F)cc2c(CN)cc(=O)n(C3CC3)c12 (centres undefined) |  | 0.125 (≈ 0.365 µM) | 7.6 | 1.1 | EC50 (HepG2): 82 µM; EC50 (K562): 40 µM
47 | C[C@H]1COc2c(N3CC4C[C@H](F)C[C@@H](N)[C@H]4C3)c(F)cc3cc(C(=O)O)c(=O)n1c23 (single isomer, unassigned) | ≤ 0.03 | 0.06 (≈ 0.143 µM) | 5.07 | -1.04 | 
48 | C[C@H]1COc2c(N3CC[C@@H](C4(N)CC4)C3)cc(Cl)c3cc(C(=O)O)c(=O)n1c23 |  | 1 (≈ 2.48 µM) |  |  | 
